Laboratory results as given in patent publication US8486951B2 (Deciphera Pharmaceuticals, LLC, priority 2008, dated 2013).
pIC50: −log10 of the molar value. Read-outs that look alike come from different tables or passages of the source.

Assays:
EBC-1 cells = experiment: EBC-1 Cell Proliferation Assay (resazurin); assay type: cell-based; conditions: 67 h + 5 h resazurin, read-out: EBC1 Cell Proliferation
Procedure: EBC-1 cells (catalog #JCRB0820) were obtained from the Japan Health Science Research Resources Bank, Osaka, Japan. Briefly, cells were grown in DMEM supplemented with 10% characterized fetal bovine serum (Invitrogen, Carlsbad, Calif.) at 37 degrees Celsius, 5% CO2, 95% humidity. Cells were allowed to expand until reaching 70-95% confluency at which point they were subcultured or harvested for assay use.
EBC-1 Cell Proliferation Assay
(§1) A serial dilution of test compound was dispensed into a 96-well black clear bottom plate (Corning, Corning, N.Y.). For each cell line, five thousand cells were added per well in 200 μL complete growth medium. Plates were incubated for 67 hours at 37 degrees Celsius, 5% CO2, 95% humidity. […] Data was analyzed using Prism software (Graphpad, San Diego, Calif.) to calculate IC50 values.

[1] = target: T1, c-MET kinase (Seq. ID no. 2) (Homo sapiens, UniProt P08581); experiment: c-MET Kinase Assay (ADP production, pyruvate kinase/lactate dehydrogenase coupled); assay type: biochemical; conditions: read-out: cMET Enzyme Assay
T1 construct: purchased Invitrogen PV3143
Procedure: In this assay, the oxidation of NADH (thus the decrease at A340 nm) was continuously monitored spectrophometrically. […] Test compounds were incubated with C-Met (Seq. ID no. 2) and other reaction reagents at 22° C. for 0.5 h before ATP (100 μM) was added to start the reaction. The absorption at 340 nm was monitored continuously for 2 hours at 30° C. on Polarstar Optima plate reader (BMG). The reaction rate was calculated using the 1.0 to 2.0 h time frame. Percent inhibition was obtained by comparison of reaction rate with that of a control (i.e. with no test compound). IC50 values were calculated from a series of percent inhibition values determined at a range of inhibitor concentrations using software routines as implemented in the GraphPad Prism software package.

[2] = target: T2, c-KIT kinase (Seq. ID no. 1) (Homo sapiens, UniProt P10721); experiment: c-KIT kinase Assay (ADP production, pyruvate kinase/lactate dehydrogenase coupled); assay type: biochemical; conditions: read-out: cKIT Enzyme Assay
T2 construct: purchased ProQinase
Procedure: In this assay, the oxidation of NADH (thus the decrease at A340 nm) was continuously monitored spectrophometrically. […] The absorption at 340 nm was monitored continuously for 0.5 hours at 30° C. on Polarstar Optima plate reader (BMG). The reaction rate was calculated using the 0 to 0.5 h time frame. Percent inhibition was obtained by comparison of reaction rate with that of a control (i.e. with no test compound). IC50 values were calculated from a series of percent inhibition values determined at a range of inhibitor concentrations using software routines as implemented in the GraphPad Prism software package.

[3] = target: KDR kinase (Seq ID No. 3) (Homo sapiens, UniProt P35968, DEL940-989/E990V); experiment: KDR Kinase Assay (assays K1, K2, K3); assay type: biochemical; conditions: assay variant K1, K2 or K3 not stated; read-out: KDR Enzyme Assay
PDGFRβ = target: T3, PDGFRβ (Homo sapiens, UniProt P09619); experiment: PDGFRβ Kinase Assay; assay type: biochemical; conditions: read-out: PDGFRb Enzyme Assay
T3 construct: purchased Invitrogen

Mo-7e pKIT = target: T4, Mo-7e pKIT (Homo sapiens, UniProt P10721); experiment: Mo-7e pKIT cellular assay; assay type: cell-based; conditions: Mo-7e cells
T4 construct: endogenous in cells; host or cells: Mo-7e

PDGFRα kinase = target: T5, PDGFRα kinase (Homo sapiens, UniProt P16234); experiment: PDGFRα Kinase Assay; assay type: biochemical; conditions: read-out: PDGFRa Enzyme Assay
T5 construct: purchased Invitrogen
Procedure: (§2) Activity of PDGFRα kinase was determined by following the production of ADP from the kinase reaction through coupling with the pyruvate kinase/lactate dehydrogenase system. In this assay, the oxidation of NADH (thus the decrease at A340 nm) was continuously monitored spectrophometrically. The reaction mixture (100 μl) contained PDGFRα (Invitrogen, 10 nM), polyE4Y (1 mg/ml), MgCl2 (10 mM), pyruvate kinase (4 units), lactate dehydrogenase (0.7 units), phosphoenol pyruvate (1 mM) and NADH (0.28 mM) and ATP (500 μM) in a 90 mM Tris buffer containing 0.2% octyl-glucoside and 1% DMSO, pH 7.5. The inhibition reaction was started by mixing serial diluted test compound with the above reaction mixture. The absorption at 340 nm was monitored continuously for 4 hours at 30° C. on a Polarstar Optima or Synergy 2 plate reader. The reaction rate was calculated using the 2 to 3 h time frame. Percent inhibition was obtained by comparison of reaction rate with that of a control (i.e. with no test compound). IC50 values were calculated from a series of percent inhibition values determined at a range of inhibitor concentrations using software routines as implemented in the GraphPad Prism software package.

phospho-VEGF R2 = target: T6, phospho-VEGF R2 (Homo sapiens, UniProt P35968); experiment: HUVEC VEGF/KDR ELISA (phospho-VEGF R2 after VEGF stimulation); assay type: cell-based; conditions: 4 h compound, 100 ng/mL VEGF 5 min, read-out: HUVEC pKDR
T6 construct: host or cells: HUVEC
Procedure: HUVEC (Human umbilical vein endothelial cell) cells were obtained from Lonza (Lonza, Walkersville, Md.). Briefly, cells were grown in EGM-2 (Lonza, Walkersville, Md.) at 37 degrees Celsius, 5% CO2, 95% humidity. Cells were allowed to expand until reaching 90-95% saturation at which point they were subcultured or harvested for assay use. For assay use, cells were harvested and grown in EGM-2 medium supplemented with 2% FBS (Lonza, Walkersville, Md.).
Twenty-five thousand cells were added per well in a 96-well black clear bottom plate (Corning, Corning, N.Y.). Cells were then incubated overnight at 37 degrees Celsius, 5% CO2, 95% humidity. A serial dilution of test compound was dispensed into another 96-well black clear bottom plate (Corning, Corning, N.Y.) containing EBM-2 supplemented with 2% FBS. Compound was added to plates containing cells and incubated for 4 hours at 37 degrees Celsius, 5% CO2, 95% humidity. Cells were stimulated with 100 ng/mL VEGF (R&D Systems, Minneapolis, Minn.) for 5 minutes, then lysed. Cell lysates were used to detect phospho-VEGF R2 using DuoSet IC HUVEC VEGF/KDR ELISA (R&D Systems, Minneapolis, Minn.). Data was analyzed using Prism software (Graphpad, San Diego, Calif.) to calculate IC50's.

FMS kinase = target: T7, FMS kinase (Homo sapiens, UniProt P07333); experiment: FMS Kinase Assay; assay type: biochemical; conditions: read-out: FMS Enzyme Assay
T7 construct: purchased Invitrogen or Millipore
Procedure: as §2, with “In” for “Activity of PDGFRα kinase was determined by following the production of ADP from the kinase reaction through coupling with the pyruvate kinase/lactate dehydrogenase system. In”, “FMS (purchased from Invitrogen or Millipore, 6” for “PDGFRα (Invitrogen, 10”

M-NFS-60 cells = experiment: M-NFS-60 Cell Proliferation Assay (resazurin); assay type: cell-based; conditions: 67 h + 5 h resazurin
Procedure: Cells were allowed to expand until reaching saturation at which point they were subcultured or harvested for assay use.
M-NFS-60 Cell Proliferation Assay
as §1, with “384-well” for “96-well”, “Two thousand” for “For each cell line,”, “hundred” for “thousand”, “50” for “200”, “CO2, and” for “CO2,”

Sequence of KDR kinase (Seq ID No. 3) (P35968 with tags, fused parts or gaps DEL940-989/E990V): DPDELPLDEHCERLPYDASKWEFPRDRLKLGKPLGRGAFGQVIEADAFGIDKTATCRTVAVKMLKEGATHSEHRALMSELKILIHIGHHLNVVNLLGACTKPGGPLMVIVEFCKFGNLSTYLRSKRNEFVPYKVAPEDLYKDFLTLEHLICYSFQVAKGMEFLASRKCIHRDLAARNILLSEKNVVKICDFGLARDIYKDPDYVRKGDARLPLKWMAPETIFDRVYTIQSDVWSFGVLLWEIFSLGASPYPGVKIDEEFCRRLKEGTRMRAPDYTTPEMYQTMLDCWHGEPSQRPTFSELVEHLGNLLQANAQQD
T1 sequence (P08581 with tags, fused parts or gaps): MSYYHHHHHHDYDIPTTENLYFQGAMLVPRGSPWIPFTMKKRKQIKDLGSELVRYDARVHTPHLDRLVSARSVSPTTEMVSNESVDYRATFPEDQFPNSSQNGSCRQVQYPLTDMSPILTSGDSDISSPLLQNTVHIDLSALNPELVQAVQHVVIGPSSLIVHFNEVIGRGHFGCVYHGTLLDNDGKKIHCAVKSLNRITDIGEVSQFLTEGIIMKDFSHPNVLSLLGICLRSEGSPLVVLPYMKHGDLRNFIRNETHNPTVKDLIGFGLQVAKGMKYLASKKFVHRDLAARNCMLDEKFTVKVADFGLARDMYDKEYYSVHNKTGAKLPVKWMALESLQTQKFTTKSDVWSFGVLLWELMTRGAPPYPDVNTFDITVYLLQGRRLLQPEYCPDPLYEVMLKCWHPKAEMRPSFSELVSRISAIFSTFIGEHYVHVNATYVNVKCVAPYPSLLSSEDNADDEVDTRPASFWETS
T3 sequence (P09619 33-1106): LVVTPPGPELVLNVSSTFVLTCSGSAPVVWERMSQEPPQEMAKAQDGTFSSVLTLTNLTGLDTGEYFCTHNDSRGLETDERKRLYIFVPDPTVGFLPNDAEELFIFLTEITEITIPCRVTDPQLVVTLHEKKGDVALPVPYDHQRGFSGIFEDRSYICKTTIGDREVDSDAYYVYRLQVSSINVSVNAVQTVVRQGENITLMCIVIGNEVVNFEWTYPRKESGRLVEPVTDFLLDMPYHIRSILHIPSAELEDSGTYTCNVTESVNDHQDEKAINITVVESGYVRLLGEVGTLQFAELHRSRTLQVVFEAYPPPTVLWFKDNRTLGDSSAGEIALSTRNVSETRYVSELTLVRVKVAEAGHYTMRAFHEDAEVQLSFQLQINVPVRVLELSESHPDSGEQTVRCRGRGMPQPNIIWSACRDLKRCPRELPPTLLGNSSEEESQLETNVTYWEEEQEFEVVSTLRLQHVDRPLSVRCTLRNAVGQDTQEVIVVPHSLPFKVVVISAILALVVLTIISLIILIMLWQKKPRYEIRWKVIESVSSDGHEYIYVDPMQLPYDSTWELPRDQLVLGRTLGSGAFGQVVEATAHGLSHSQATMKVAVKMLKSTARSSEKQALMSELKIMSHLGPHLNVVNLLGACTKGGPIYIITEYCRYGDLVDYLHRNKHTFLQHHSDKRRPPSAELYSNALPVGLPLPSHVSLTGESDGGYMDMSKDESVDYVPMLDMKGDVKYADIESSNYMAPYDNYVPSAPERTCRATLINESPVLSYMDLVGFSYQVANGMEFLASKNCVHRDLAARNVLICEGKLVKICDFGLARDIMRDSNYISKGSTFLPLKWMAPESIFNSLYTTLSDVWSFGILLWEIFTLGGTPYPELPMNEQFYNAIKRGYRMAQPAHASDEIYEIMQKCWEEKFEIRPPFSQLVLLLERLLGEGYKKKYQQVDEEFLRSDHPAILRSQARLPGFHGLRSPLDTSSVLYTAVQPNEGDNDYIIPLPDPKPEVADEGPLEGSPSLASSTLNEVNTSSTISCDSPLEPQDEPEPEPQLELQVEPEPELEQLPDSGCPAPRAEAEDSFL
T5 sequence (P16234 24-1089): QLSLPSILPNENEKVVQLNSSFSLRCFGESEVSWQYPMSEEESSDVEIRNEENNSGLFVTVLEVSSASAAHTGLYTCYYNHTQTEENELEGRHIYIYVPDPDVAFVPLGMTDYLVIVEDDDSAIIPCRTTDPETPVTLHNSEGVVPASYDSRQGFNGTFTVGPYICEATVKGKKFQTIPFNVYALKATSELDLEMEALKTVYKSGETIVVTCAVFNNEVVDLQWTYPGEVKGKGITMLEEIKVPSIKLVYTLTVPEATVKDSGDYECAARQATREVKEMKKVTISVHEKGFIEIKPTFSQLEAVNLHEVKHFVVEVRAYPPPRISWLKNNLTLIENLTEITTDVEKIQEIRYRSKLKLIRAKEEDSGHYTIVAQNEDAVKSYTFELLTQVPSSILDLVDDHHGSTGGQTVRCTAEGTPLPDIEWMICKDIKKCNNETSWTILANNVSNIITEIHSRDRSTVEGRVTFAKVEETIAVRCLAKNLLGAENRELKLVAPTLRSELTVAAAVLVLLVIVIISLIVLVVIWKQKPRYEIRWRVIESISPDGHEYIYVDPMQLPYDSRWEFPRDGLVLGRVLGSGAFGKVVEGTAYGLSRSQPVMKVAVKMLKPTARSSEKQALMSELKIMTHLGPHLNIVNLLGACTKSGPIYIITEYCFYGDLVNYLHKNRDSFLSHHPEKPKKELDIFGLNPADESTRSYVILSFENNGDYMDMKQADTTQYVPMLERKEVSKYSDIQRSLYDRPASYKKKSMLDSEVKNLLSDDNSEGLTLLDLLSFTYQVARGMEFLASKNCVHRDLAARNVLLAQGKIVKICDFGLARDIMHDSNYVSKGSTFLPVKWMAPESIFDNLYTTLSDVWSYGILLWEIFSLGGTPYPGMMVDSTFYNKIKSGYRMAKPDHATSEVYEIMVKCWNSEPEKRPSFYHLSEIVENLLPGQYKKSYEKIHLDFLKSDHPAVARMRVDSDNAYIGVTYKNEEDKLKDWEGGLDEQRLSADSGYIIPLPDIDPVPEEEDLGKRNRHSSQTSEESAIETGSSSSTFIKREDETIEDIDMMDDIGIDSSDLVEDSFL
T7 sequence (P07333 20-972): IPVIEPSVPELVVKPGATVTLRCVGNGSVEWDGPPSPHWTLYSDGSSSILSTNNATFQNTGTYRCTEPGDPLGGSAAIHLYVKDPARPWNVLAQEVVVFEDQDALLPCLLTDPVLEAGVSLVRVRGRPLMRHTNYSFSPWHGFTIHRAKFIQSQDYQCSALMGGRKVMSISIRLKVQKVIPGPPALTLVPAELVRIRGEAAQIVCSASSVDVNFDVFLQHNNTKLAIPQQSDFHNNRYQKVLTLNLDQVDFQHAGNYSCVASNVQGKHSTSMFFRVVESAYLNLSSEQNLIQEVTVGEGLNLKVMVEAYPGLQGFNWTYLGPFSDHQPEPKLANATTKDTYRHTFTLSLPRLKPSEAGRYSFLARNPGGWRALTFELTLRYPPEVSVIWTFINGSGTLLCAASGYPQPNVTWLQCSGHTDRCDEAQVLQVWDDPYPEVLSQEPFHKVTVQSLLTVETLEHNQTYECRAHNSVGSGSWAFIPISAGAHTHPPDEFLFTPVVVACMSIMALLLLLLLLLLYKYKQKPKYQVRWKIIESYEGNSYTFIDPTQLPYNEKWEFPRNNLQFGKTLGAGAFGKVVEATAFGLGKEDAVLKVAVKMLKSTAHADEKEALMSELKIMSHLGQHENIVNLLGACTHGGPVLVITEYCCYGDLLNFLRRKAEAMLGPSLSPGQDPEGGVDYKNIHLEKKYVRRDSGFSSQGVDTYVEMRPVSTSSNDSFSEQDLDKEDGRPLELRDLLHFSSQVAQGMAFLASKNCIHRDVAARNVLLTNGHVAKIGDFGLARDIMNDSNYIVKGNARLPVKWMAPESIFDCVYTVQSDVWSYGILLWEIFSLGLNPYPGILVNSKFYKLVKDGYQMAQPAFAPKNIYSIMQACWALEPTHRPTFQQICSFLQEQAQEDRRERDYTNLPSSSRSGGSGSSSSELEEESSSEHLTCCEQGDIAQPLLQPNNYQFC
T2 sequence (P10721 with tags, fused parts or gaps): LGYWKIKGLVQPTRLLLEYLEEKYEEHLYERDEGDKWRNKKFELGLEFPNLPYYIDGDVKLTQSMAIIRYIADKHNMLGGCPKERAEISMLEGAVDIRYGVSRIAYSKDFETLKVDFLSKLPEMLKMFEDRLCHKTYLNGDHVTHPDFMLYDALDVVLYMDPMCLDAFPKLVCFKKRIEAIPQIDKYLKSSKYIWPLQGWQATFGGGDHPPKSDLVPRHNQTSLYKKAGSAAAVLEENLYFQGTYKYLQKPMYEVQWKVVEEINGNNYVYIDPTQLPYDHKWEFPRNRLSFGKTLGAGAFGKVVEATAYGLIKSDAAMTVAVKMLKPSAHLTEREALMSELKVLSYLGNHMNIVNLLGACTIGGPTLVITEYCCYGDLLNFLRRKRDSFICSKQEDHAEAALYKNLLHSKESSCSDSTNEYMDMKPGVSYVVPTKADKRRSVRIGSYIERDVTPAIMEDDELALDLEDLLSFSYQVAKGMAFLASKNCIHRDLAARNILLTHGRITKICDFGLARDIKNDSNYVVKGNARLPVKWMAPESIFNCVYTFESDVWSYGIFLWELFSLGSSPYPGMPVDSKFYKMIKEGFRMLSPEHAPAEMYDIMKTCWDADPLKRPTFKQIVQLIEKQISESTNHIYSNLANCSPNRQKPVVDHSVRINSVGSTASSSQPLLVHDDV

Molecule	pIC50 [1]	pIC50 [2]	pIC50 [3]	pIC50 (PDGFRβ)	pIC50 (Mo-7e pKIT)	pIC50 (PDGFRα kinase)	pIC50 (FMS kinase)	pIC50 (EBC-1 cells; Homo sapiens)	pIC50 (EBC-1 cells)	pIC50 (phospho-VEGF R2)	pIC50 (M-NFS-60 cells)
N-(2,5-difluoro-4-(2-(1-methyl-1H-pyrazol-4-yl)pyridin-4-yloxy)phenyl)-N-(4-fluorophenyl)cyclopropane-1,1-dicarboxamide [Example 40]	> 6.70	> 6.70	> 6.70	> 5.00	–	> 5.70	–	–	> 6.70	> 5.70	–
Cn1cc(-c2cc(Oc3ccc(NC(=O)C4(C(=O)Nc5ccc(F)cc5)CC4)nc3)ccn2)cn1 [Example 41, N-(4-fluorophenyl)-N′-(5-(2-(1-methyl-1,4-pyrazol-4-yl)pyridin-4-yloxy)pyridin-2-yl)cyclopropane-1,1-dicarboxamide]	> 5.70	> 5.70	> 5.70	> 5.00	–	> 5.70	> 6.70	–	–	–	> 5.00
Cn1cc(-c2cc(Oc3ccc(NC(=O)C4(C(=O)Nc5ccc(Cl)cc5)CC4)c(F)c3)ccn2)cn1 [Example 22, N-(4-chlorophenyl)-N′-(2-fluoro-4-(2-(1-methyl-1H-pyrazol-4-yl)pyridin-4-yloxy)phenyl)cyclopropane-1,1-dicarboxamide]	> 5.70	> 5.70	> 5.70	> 5.70	–	> 5.70	> 6.70	> 5.70	–	–	–
Cc1ccc(NC(=O)C2(C(=O)Nc3ccc(Oc4ccnc(-c5cnn(C)c5)c4)cc3F)CC2)cc1 [Example 23, N-(2-fluoro-4-(2-(1-methyl-1H-pyrazol-4-yl)pyridin-4-yloxy)phenyl)-N′-p-tolylcyclopropane-1,1-dicarboxamide]	> 5.70	> 5.00	> 5.00	> 5.00	–	> 5.00	> 5.70	> 5.70	–	–	–

More lines, main results first:

pIC50 [1]	pIC50 [2]	pIC50 [3]	pIC50 (PDGFRβ)	pIC50 (Mo-7e pKIT)	pIC50 (PDGFRα kinase)	pIC50 (FMS kinase)	Molecule	pIC50 (EBC-1 cells; Homo sapiens)	pIC50 (EBC-1 cells)	pIC50 (phospho-VEGF R2)	pIC50 (M-NFS-60 cells)
> 6.70	> 6.70	> 5.00	> 5.00	> 5.70	> 6.70	–	Cn1cc(-c2cc(Oc3cc(F)c(NC(=O)NC(=O)Cc4ccc(F)cc4)cc3F)ccn2)cn1 [Example 42, 1-(2,5-difluoro-4-(2-(1-methyl-1H-pyrazol-4-yl)pyridin-4-yloxy)phenyl)-3-(2-(4-fluorophenyl)acetyl)urea]	> 6.70	–	–	–
–	> 5.00	> 5.70	> 5.00	–	> 5.70	> 6.70	Cn1cc(-c2cc(Oc3ccc(NC(=O)C4(C(=O)Nc5ccc(F)cc5)CC4)c(F)c3)ccn2)cn1 [Example 7, N-(2-fluoro-4-(2-(1-methyl-1H-pyrazol-4-yl)pyridin-4-yloxy)phenyl)-N′-(4-fluorophenyl)cyclopropane-1,1-dicarboxamide]	> 6.70	–	> 5.70	–
> 6.70	> 6.70	> 5.70	> 5.00	–	> 5.00	> 5.70	Cc1nn(C)cc1-c1cc(Oc2cc(F)c(NC(=O)C3(C(=O)Nc4ccc(F)cc4)CC3)cc2F)ccn1 [Example 49, N-(4-(2-(1,3-Dimethyl-1H-pyrazol-4-yl)pyridin-4-yloxy)-2,5-difluorophenyl)-N′-(4-fluorophenyl)cyclopropane-1,1-dicarboxamide]	> 5.70	–	–	–
> 6.70	> 6.70	> 5.70	> 5.70	–	> 5.70	> 6.70	Cc1cc(NC(=O)C2(C(=O)Nc3ccc(F)cc3)CC2)c(F)cc1Oc1ccnc(-c2cnn(C)c2)c1 [Example 51, N-(2-fluoro-5-methyl-4-(2-(1-methyl-1H-pyrazol-4-yl)pyridin-4-yloxy)phenyl)-N′-(4-fluorophenyl)cyclopropane-1,1-dicarboxamide]	> 5.70	–	–	–
> 6.70	> 6.70	> 5.70	> 5.00	> 6.70	> 5.00	–	Cn1cc(-c2cc(Oc3cc(F)c(NC(=O)C4(C(=O)Nc5ccccc5)CC4)cc3F)ccn2)cn1 [Example 45, N-(2,5-difluoro-4-(2-(1-methyl-1H-pyrazol-4-yl)pyridin-4-yloxy)phenyl)-N′-phenylcyclopropane-1,1-dicarboxamide]	> 6.70	–	–	–
